Measurements reported in patent publication US20150258101A1 (Proximagen Limited, priority 2014, published 2015).
pIC50: −log10 of the molar value.

What follows are compounds tested against T1, purified recombinantly expressed human SSAO (Homo sapiens, UniProt Q16853) (assay: SSAO enzyme inhibition assay (benzylamine substrate; hydrogen peroxide/HRP-coupled or 14C aldehyde detection)). Conditions: SSAO inhibitory activity, RT.
T1 construct: made in house
T1 sequence (Q16853 1-763): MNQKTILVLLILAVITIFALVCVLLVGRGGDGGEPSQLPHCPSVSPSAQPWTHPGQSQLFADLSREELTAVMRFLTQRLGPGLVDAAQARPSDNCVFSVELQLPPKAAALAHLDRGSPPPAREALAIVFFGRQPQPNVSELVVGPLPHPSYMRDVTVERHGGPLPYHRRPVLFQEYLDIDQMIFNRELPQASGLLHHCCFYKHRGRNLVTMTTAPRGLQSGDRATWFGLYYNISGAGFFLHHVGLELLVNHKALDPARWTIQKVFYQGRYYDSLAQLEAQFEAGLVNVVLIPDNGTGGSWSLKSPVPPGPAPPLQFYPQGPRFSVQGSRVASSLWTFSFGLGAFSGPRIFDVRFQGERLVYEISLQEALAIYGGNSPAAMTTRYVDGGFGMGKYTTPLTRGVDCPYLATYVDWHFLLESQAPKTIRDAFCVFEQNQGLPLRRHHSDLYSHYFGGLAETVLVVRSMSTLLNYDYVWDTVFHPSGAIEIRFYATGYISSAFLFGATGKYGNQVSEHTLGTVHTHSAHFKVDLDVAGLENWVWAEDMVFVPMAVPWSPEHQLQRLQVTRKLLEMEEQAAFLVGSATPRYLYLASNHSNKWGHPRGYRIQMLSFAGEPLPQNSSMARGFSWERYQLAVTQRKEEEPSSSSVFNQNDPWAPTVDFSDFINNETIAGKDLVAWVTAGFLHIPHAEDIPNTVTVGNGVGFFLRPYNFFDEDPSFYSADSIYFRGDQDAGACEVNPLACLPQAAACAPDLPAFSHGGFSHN
Format: biochemical
Experimental: All primary assays were performed at RT. with purified recombinantly expressed human SSAO. Enzyme was prepared essentially as described in Öhman et al. (Protein Expression and Purification 46 (2006) 321-331). In addition, secondary- and selectivity assays were performed using SSAO prepared from various tissues or purified rat recombinant SSAO. The enzyme activity was assayed with benzylamine as substrate by measuring either benzaldehyde production, using ^14C-labeled substrate, or by utilizing the production of hydrogen peroxide in a horseradish peroxidase (HRP) coupled reaction. Briefly, test compounds were dissolved in dimethyl sulfoxide (DMSO) to a concentration of 10 mM. Dose-response measurements were assayed by either creating 1:10 serial dilutions in DMSO to produce a 7 point curve or by making 1:3 serial dilutions in DMSO to produce 11 point curves.
In a horseradish peroxidase (HRP) coupled reaction, hydrogen peroxide oxidation of 10-acetyl-3,7-dihydroxyphenoxazine produced resorufin, which is a highly fluorescent compound (Zhout and Panchuk-Voloshina. Analytical Biochemistry 253 (1997) 169-174; Amplex® Red Hydrogen Peroxide/peroxidase Assay kit, Invitrogen A22188). Enzyme and compounds in 50 mM sodium phosphate, pH 7.4 were set to pre-incubate in flat-bottomed microtiter plates for approximately 15 min before initiating the reaction by addition of a mixture of HRP, benzylamine and Amplex reagent. Benzylamine concentration was fixed at a concentration corresponding to the Michaelis constant, determined using standard procedures. Fluorescence intensity was then measured at several time points during 1-2 h, exciting at 544 nm and reading the emission at 590 nm. For the human SSAO assay final concentrations of the reagents in the assay wells were: SSAO enzyme 1 ug/ml, benzylamine 100 uM, Amplex reagent 20 uM, HRP 0.1 U/mL and varying concentrations of test compound. The inhibition was measured as % decrease of the signal compared to a control without inhibitor (only diluted DMSO). The background signal from a sample containing no SSAO enzyme was subtracted from all data points. Data was fitted to a four parameter logistic model and IC50 values were calculated using the Graph Pad Prism 4 or XLfit 4 programs.
SSAO activity was assayed using 14C-labeled benzylamine and analysed by measuring radioactive benzaldehyde. In a white 96-well optiplate (Packard), 20 uL of diluted test compound was pre-incubated at room temperature with 20 uL SSAO enzyme for approximately 15 min with continuous agitation. All dilutions were made with PBS. The reaction was initiated by adding 20 uL of the benzylamine substrate solution containing [7-14C] Benzylamine hydrochloride (CFA589, GE Healthcare). The plate was incubated for 1 h as above after which the reaction was stopped by acidification (10 uL 1M aq HCl). Then 90 uL Micro Scint-E solution (Perkin-Elmer) was added to each well and the plate was continuously mixed for 15 min. Phase separation occurred instantly and activity was read in a Topcount scintillation counter (Perkin-Elmer). In the final reaction well, the human recombinant SSAO concentration was 10 ug/ml. In order to optimize sensitivity, the substrate concentration was decreased as compared to the HRP coupled assay in order to get a higher fraction of radioactive product. In the human SSAO assay, benzylamine concentration was 40 uM (0.2 uCi/mL). Data was analysed as above.

| Compound | pIC50 |
| --- | --- |
| NC(=O)N1CCCN(c2ccc(-c3nc4ccncc4n3-c3ccc(F)cc3)cn2)CC1 [Example 94, 4-{5-[3-(4-Fluorophenyl)-3H-imidazo[4,5-c]pyridin-2-yl]pyridin-2-yl}-1,4-diazepane-1-carboxamide] | 5.92 to 6.70 |
| c1cc2nc(-c3cnc(N4CCOCC4)nc3)n(-c3ccc(C4CC4)cc3)c2cn1 [Example 96, 4-{5-[3-(4-Cyclopropylphenyl)-3H-imidazo[4,5-c]pyridin-2-yl]pyrimidin-2-yl}morpholine] | 6.70 to 7.30 |
| Cc1ccc(-n2c(-c3cnc(N4CCOCC4)cc3C)nc3ccncc32)cc1 [Example 97, 4-{4-Methyl-5-[3-(4-methylphenyl)-3H-imidazo[4,5-c]pyridin-2-yl]pyridin-2-yl}morpholine] | 5.92 to 6.70 |
| O=c1cc(N2CCOCC2)[nH]cc1-c1nc2ccncc2n1-c1ccc(F)cc1 [Example 99, 5-[3-(4-Fluorophenyl)-3H-imidazo[4,5-c]pyridin-2-yl]-2-(morpholin-4-yl)-1,4-dihydropyridin-4-one] | > 7.30 |
| Cc1cc(NC2CCOCC2)ncc1-c1nc2ccncc2n1-c1ccc(F)cc1 [Example 100, 5-[3-(4-Fluorophenyl)-3H-imidazo[4,5-c]pyridin-2-yl]-4-methyl-N-(oxan-4-yl)pyridin-2-amine] | 5.92 to 6.70 |
| Cc1cc(NCC2CC2)ncc1-c1nc2ccncc2n1-c1ccc(F)cc1 [Example 101, N-(Cyclopropylmethyl)-5-[3-(4-fluorophenyl)-3H-imidazo[4,5-c]pyridin-2-yl]-4-methylpyridin-2-amine] | 6.70 to 7.30 |
| Cc1ccc(-n2c(-c3ccc(N4C[C@@H](C)O[C@@H](C)C4)nc3)nc3ccncc32)cn1 [Example 103, (2R,6S)-2,6-Dimethyl-4-{5-[3-(6-methylpyridin-3-yl)-3H-imidazo[4,5-c]pyridin-2-yl]pyridin-2-yl}morpholine; tris(trifluoroacetic acid)] | 6.70 to 7.30 |
| Cc1ccc(-n2c(-c3ccc(N4C[C@@H](C)O[C@@H](C)C4)nc3)nc3ccncc32)nc1 [Example 104, (2R,6S)-2,6-Dimethyl-4-{5-[3-(5-methylpyridin-2-yl)-3H-imidazo[4,5-c]pyridin-2-yl]pyridin-2-yl}morpholine] | > 7.30 |
| Nc1ccc(-c2nc3ccncc3n2-c2ccc(Cl)cc2F)cn1 [Example 105, 5-[3-(4-Chloro-2-fluorophenyl)-3H-imidazo[4,5-c]pyridin-2-yl]pyridin-2-amine] | 5.92 to 6.70 |
| CN1CCN(c2ccc(-c3nc4ccncc4n3-c3ccc(F)cc3)cn2)CC1=O [Example 106, 4-{5-[3-(4-Fluorophenyl)-3H-imidazo[4,5-c]pyridin-2-yl]pyridin-2-yl}-1-methylpiperazin-2-one] | 6.70 to 7.30 |
| Cc1ccc(-n2c(-c3cnc(N4CCOCC4)cc3C)nc3ccncc32)cn1 [Example 107, 4-{4-Methyl-5-[3-(6-methylpyridin-3-yl)-3H-imidazo[4,5-c]pyridin-2-yl]pyridin-2-yl}morpholine] | > 7.30 |
| Cc1nc(N2CCOCC2)ccc1-c1nc2ccncc2n1-c1ccc(F)cc1 [Example 108, 4-{5-[3-(4-Fluorophenyl)-3H-imidazo[4,5-c]pyridin-2-yl]-6-methylpyridin-2-yl}morpholine] | 5.92 to 6.70 |
| CN(C)c1cc(-c2nc3ccncc3n2-c2ccc(F)cc2)ccn1 [Example 109, 4-[3-(4-Fluorophenyl)-3H-imidazo[4,5-c]pyridin-2-yl]-N,N-dimethylpyridin-2-amine] | 5.92 to 6.70 |
| Fc1ccc(-n2c(-c3ccc(OC4CCOC4)nc3)nc3ccncc32)cc1 (stereo not shown) [Example 112, 5-[3-(4-Fluorophenyl)-3H-imidazo[4,5-c]pyridin-2-yl]-2-(oxolan-3-yloxy)pyridine] | > 7.30 |
| Fc1ccc(-n2c(-c3ccc(OC4CCOCC4)nc3)nc3ccncc32)cc1 [Example 113, 5-[3-(4-Fluorophenyl)-3H-imidazo[4,5-c]pyridin-2-yl]-2-(oxan-4-yloxy)pyridine] | > 7.30 |
| Cn1ccc(-c2nc3ccncc3n2-c2ccc(F)cc2)cc1=O [Example 114, 4-[3-(4-Fluorophenyl)-3H-imidazo[4,5-c]pyridin-2-yl]-1-methyl-1,2-dihydropyridin-2-one] | 5.92 to 6.70 |
| O=c1cc(-c2nc3ccncc3n2-c2ccc(F)cc2)ccn1C1CC1 [Example 115, 1-Cyclopropyl-4-[3-(4-fluorophenyl)-3H-imidazo[4,5-c]pyridin-2-yl]-1,2-dihydropyridin-2-one] | > 7.30 |
| O=c1cc(-c2nc3ccncc3n2-c2ccc(Cl)cc2F)ccn1C1CC1 [Example 116, 4-[3-(4-Chloro-2-fluorophenyl)-3H-imidazo[4,5-c]pyridin-2-yl]-1-cyclopropyl-1,2-dihydropyridin-2-one] | 6.70 to 7.30 |
| Cc1ccc(-n2c(-c3cnc(N4C[C@@H](C)O[C@@H](C)C4)nc3)nc3ccncc32)cn1 [Example 118, (2R,6S)-2,6-Dimethyl-4-{5-[3-(6-methylpyridin-3-yl)-3H-imidazo[4,5-c]pyridin-2-yl]pyrimidin-2-yl}morpholine] | > 7.30 |
| Cc1ccc(-n2c(-c3cnc(NC4CCOCC4)nc3)nc3ccncc32)cc1 [Example 119, 5-[3-(4-Methylphenyl)-3H-imidazo[4,5-c]pyridin-2-yl]-N-(oxan-4-yl)pyrimidin-2-amine; bis(trifluoroacetic acid)] | 6.70 to 7.30 |
| Clc1ccc(-n2c(-c3ccccn3)cc3ccncc32)cc1 [Example 121, 2-[1-(4-Chlorophenyl)-1H-pyrrolo[2,3-c]pyridin-2-yl]pyridine] | > 7.30 |
| Clc1ccc(-n2c(-c3cncnc3)cc3ccncc32)cc1 [Example 123] | > 7.30 |
| Clc1ccc(-n2c(-c3cnccn3)cc3ccncc32)cc1 [Example 124, 2-[1-(4-Chlorophenyl)-1H-pyrrolo[2,3-c]pyridin-2-yl]pyrazine] | > 7.30 |
| CN1CCN(C(=O)c2ccc(-c3cc4ccncc4n3-c3ccc(Cl)cc3)cc2)CC1 [Example 125, 1-({4-[1-(4-Chlorophenyl)-1H-pyrrolo[2,3-c]pyridin-2-yl]phenyl}carbonyl)-4-methylpiperazine] | 5.92 to 6.70 |
| Cc1nc(C)c(-c2cc3ccncc3n2-c2ccc(Cl)cc2)[nH]1 [Example 126, 5-[1-(4-Chlorophenyl)-1H-pyrrolo[2,3-c]pyridin-2-yl]-2,4-dimethyl-1H-imidazole] | > 7.30 |
| Cc1cc(N2CCOCC2)ncc1-c1cc2ccncc2n1-c1ccc(Cl)cc1 [Example 129, 4-{5-[1-(4-Chlorophenyl)-1H-pyrrolo[2,3-c]pyridin-2-yl]-4-methylpyridin-2-yl}morpholine; bis(trifluoroacetic acid)] | > 7.30 |
| Cc1ccc(-n2c(-c3cnc(N4CCOCC4)nc3)cc3ccncc32)cc1 [Example 130, 4-{5-[1-(4-Methylphenyl)-1H-pyrrolo[2,3-c]pyridin-2-yl]pyrimidin-2-yl}morpholine] | 6.70 to 7.30 |
| Brc1ccc(-n2c(-c3cnc(N4CCOCC4)nc3)cc3ccncc32)cc1 [Example 133, 4-{5-[1-(4-Bromophenyl)-1H-pyrrolo[2,3-c]pyridin-2-yl]pyrimidin-2-yl}morpholine] | > 7.30 |
